Data as given in patent US10174016B2 (BAYER AKTIENGESELLSCHAFT, priority 2014, dated 2019).
Like-named read-outs stand apart in the source and are kept apart here.

What was measured:
human P2X3 receptor = human P2X3 receptor (Homo sapiens (Human), UniProt P56373); experiment: Intracellular calcium measurement (FLIPR, Fluo-4) of antagonist activity at human P2X3 receptors; assay type: cell-based; settings: read-out: hP2X3 IC50
Procedure, shortened: (§1)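 Antagonism quantified from peak calcium fluorescence (Fluo-4, FLIPR, 90 sec read) evoked by EC80 α,β-Me-ATP, after a 30 min, 37° C. compound pretreatment in 1% DMSO. Human P2X3- or P2X2/3-expressing cells used; triplicate means fitted for IC50, percent maximal inhibition and Hill coefficient.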

human P2X2/3 receptor = human P2X2/3 receptor (Homo sapiens (Human), UniProt P56373+Q9UBL9); experiment: Intracellular calcium measurement (FLIPR, Fluo-4) of antagonist activity at human P2X2/3 receptors; assay type: cell-based; settings: human P2X2/3, FLIPR calcium assay, agonist α,β-Me-ATP; read-out: hP2X2/3 IC50
Procedure, shortened: as §1

[1] = human P2X3, FLIPR calcium assay, agonist α,β-Me-ATP

Chain of human P2X2/3 receptor (P56373 whole entry): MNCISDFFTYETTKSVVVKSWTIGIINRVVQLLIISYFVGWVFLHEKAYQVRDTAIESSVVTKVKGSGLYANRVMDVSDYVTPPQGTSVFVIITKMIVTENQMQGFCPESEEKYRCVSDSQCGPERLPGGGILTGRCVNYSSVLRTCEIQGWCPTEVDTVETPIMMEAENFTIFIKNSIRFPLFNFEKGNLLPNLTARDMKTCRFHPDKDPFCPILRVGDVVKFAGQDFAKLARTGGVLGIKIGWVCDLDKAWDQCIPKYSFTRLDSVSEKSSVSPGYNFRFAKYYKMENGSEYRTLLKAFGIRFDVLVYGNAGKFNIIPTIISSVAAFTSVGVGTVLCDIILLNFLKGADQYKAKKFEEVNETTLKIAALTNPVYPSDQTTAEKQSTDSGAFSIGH
Chain of human P2X2/3 receptor (Q9UBL9 whole entry): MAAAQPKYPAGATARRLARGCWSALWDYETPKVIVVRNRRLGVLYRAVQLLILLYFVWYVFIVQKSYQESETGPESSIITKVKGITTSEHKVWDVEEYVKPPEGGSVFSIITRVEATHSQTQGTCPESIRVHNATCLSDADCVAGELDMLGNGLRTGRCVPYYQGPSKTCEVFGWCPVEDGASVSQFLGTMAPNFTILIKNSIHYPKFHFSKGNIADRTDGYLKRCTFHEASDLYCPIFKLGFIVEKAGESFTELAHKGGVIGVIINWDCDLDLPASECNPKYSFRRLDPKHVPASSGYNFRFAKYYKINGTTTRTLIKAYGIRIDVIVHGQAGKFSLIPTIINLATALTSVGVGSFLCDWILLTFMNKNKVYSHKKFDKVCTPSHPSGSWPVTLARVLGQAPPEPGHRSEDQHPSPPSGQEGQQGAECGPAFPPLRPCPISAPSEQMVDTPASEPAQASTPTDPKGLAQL
Chain of human P2X3 receptor (P56373 whole entry): as the sequence (P56373 whole entry) above

Row | IC50 (human P2X3 receptor; [1]) | IC50 (human P2X2/3 receptor) | SMILES | IC50 (human P2X3 receptor)
1 | 24 nM | 317 nM | Cc1cnc(-c2cc(OC3CCOCC3)cc(C(=O)N[C@H](C)c3nnc(C)s3)c2)s1 [Example 92, N-[(1R)-1-(5-Methyl-1,3,4-thiadiazol-2-yl)ethyl]-3-(5-methyl-1,3-thiazol-2-yl)-5-(tetrahydro-2H-pyran-4-yloxy)benzamide] | 
2 | 8 nM | 385 nM | Cc1ccc(CNC(=O)c2cc(OCC3CCOCC3)cc(-c3ncc(C)s3)c2)nn1 [Example 93, N-[(6-Methylpyridazin-3-yl)methyl]-3-(5-methyl-1,3-thiazol-2-yl)-5-(tetrahydro-2H-pyran-4-ylmethoxy)benzamide] | 
3 | 7 nM | 132 nM | Cc1cnc([C@@H](C)NC(=O)c2cc(OCC3CCOCC3)cc(-c3ncc(C)s3)c2)cn1 [Example 94, N-[(1R)-1-(5-Methylpyrazin-2-yl)ethyl]-3-(5-methyl-1,3-thiazol-2-yl)-5-(tetrahydro-2H-pyran-4-ylmethoxy)benzamide] | 
4 | 2 nM | 129 nM | Cc1cnc(-c2cc(OCC3CCOCC3)cc(C(=O)NC(C)c3ncc(Cl)cc3F)c2)s1 (stereo not shown) [Example 95, N-[1-(5-Chloro-3-fluoropyridin-2-yl)ethyl]-3-(5-methyl-1,3-thiazol-2-yl)-5-(tetrahydro-2H-pyran--4-ylmethoxy)benzamide] | 
5 | 18 nM | 1080 nM | Cc1cnc(-c2cc(OCC3CCOCC3)cc(C(=O)NC(C)c3ncc(F)cc3Cl)c2)s1 (stereo not shown) [Example 96, N-[1-(3-Chloro-5-fluoropyridin-2-yl)ethyl]-3-(5-methyl-1,3-thiazol-2-yl)-5-(tetrahydro-2H-pyran-4-ylmethoxy)benzamide] | 
6 | 15 nM | 1690 nM | Cc1cnc(CNC(=O)c2cc(OCC3CCOCC3)cc(-c3ncc(C)s3)c2)cn1 [Example 97, N-[(5-Methylpyrazin-2-yl)methyl]-3-(5-methyl-1,3-thiazol-2-yl)-5-(tetrahydro-2H-pyran-4-ylmethoxy)benzamide] | 
7 | 1 nM | 19 nM | Cc1cnc(-c2cc(OCC3CCOCC3)cc(C(=O)N[C@H](C)c3cnc(C(F)(F)F)nc3)c2)s1 [Example 98, 3-(5-Methyl-1,3-thiazol-2-yl)-5-(tetrahydro-2H-pyran-4-ylmethoxy)-N-[(1R)-1-[2-(trifluoromethyl)pyrimidin-5-yl]ethyl]benzamide] | 
8 | 2 nM | 27 nM | Cc1ccc([C@@H](C)NC(=O)c2cc(OCC3CCOCC3)cc(-c3ncc(C)s3)c2)nn1 [Example 99, N-[(1R)-1-(6-Methylpyridazin-3-yl)ethyl]-3-(5-methyl-1,3-thiazol-2-yl)-5-(tetrahydro-2H-pyran-4-ylmethoxy)benzamide] | 
9 | 6 nM | 16 nM | Cc1cc(Oc2cc(C(=O)N[C@H](C)c3ccc(C)nn3)cc(-c3ncc(C)s3)c2)ccn1 [Example 100, N-[(1R)-1-(6-Methylpyridazin-3-yl)ethyl]-3-[(2-methylpyridin-4-yl)oxy]-5-(5-methyl-1,3-thiazol-2-yl)benzamide] | 
10 | 15 nM | 60 nM | Cc1cc(Oc2cc(C(=O)NCc3ccc(C)nn3)cc(-c3ncc(C)s3)c2)ccn1 [Example 101, N-[(6-Methylpyridazin-3-yl)methyl]-3-[(2-methylpyridin-4-yl)oxy]-5-(5-methyl-1,3-thiazol-2-yl)benzamide] | 
11 | 10 nM | 57 nM | Cc1cnc([C@@H](C)NC(=O)c2cc(Oc3ccnc(C)c3)cc(-c3ncc(C)s3)c2)cn1 [Example 102, N-[(1R)-1-(5-Methylpyrazin-2-yl)ethyl]-3-[(2-methylpyridin-4-yl)oxy]-5-(5-methyl-1,3-thiazol-2-yl)benzamide] | 
12 | 2 nM | 14 nM | Cc1cc(Oc2cc(C(=O)N[C@H](C)c3cnc(C(F)(F)F)nc3)cc(-c3ncc(C)s3)c2)ccn1 [Example 103, 3-[(2-Methylpyridin-4-yl)oxy]-5-(5-methyl-1,3-thiazol-2-yl)-N-{(1R)-1-[2-(trifluoromethyl)pyrimidin-5-yl]ethyl}benzamide] | 
13 | 51 nM | 377 nM | Cc1cnc(CNC(=O)c2cc(Oc3ccnc(C)c3)cc(-c3ncc(C)s3)c2)cn1 [Example 104, N-[(5-Methylpyrazin-2-yl)methyl]-3-[(2-methylpyridin-4-yl)oxy]-5-(5-methyl-1,3-thiazol-2-yl)benzamide] | 
14 | 16 nM | 41 nM | Cc1cc(Oc2cc(C(=O)N[C@H](C)c3cnc(C)nc3)cc(-c3ncc(C)s3)c2)ccn1 [Example 106, 3-[(2-methylpyridin-4-yl)oxy]-N-[(1R)-1-(2-methylpyrimidin-5-yl)ethyl]-5-(5-methyl-1,3-thiazol-2-yl)benzamide] | 
15 | 9 nM | 17 nM | Cc1ccc([C@@H](C)NC(=O)c2cc(Oc3ccnc(C)c3)cc(-c3ncc(C)s3)c2)cn1 [Example 107, N-[(1R)-1-(6-methylpyridin-3-yl)ethyl]-3-[(2-methylpyridin-4-yl)oxy]-5-(5-methyl-1,3-thiazol-2-yl)benzamide] | 
16 | 11 nM | 83 nM | Cc1ccc(Oc2cc(C(=O)N[C@H](C)c3cnc(C(F)(F)F)nc3)cc(-c3ncc(C)s3)c2)cn1 [Example 108, 3-[(6-Methylpyridin-3-yl)oxy]-5-(5-methyl-1,3-thiazol-2-yl)-N-{(1R)-1-[2-(trifluoromethyl)pyrimidin-5-yl]ethyl}benzamide] | 
17 | 235 nM | 2410 nM | Cc1cnc([C@@H](C)NC(=O)c2cc(Oc3nnc(C)s3)cc(-c3ncc(C)s3)c2)cn1 [Example 109, N-[(1R)-1-(5-Methylpyrazin-2-yl)ethyl]-3-[(5-methyl-1,3,4-thiadiazol-2-yl)oxy]-5-(5-methyl-1,3-thiazol-2-yl)benzamide] | 
18 | 114 nM | 1450 nM | Cc1ccc([C@@H](C)NC(=O)c2cc(Oc3nnc(C)s3)cc(-c3ncc(C)s3)c2)nn1 [Example 110, N-[(1R)-1-(6-Methylpyridazin-3-yl)ethyl]-3-[(5-methyl-1,3,4-thiadiazol-2-yl)oxy]-5-(5-methyl-1,3-thiazol-2-yl)benzamide] | 
19 | 16 nM | 380 nM | Cc1cnc(-c2cc(Oc3nnc(C)s3)cc(C(=O)N[C@H](C)c3cnc(C(F)(F)F)nc3)c2)s1 [Example 111, 3-[(5-Methyl-1,3,4-thiadiazol-2-yl)oxy]-5-(5-methyl-1,3-thiazol-2-yl)-N-[(1R)-1-[2-(trifluoromethyl)pyrimidin-5-yl]ethyl]benzamide] | 
20 | 43 nM | 387 nM | Cc1ccc([C@@H](C)NC(=O)c2cc(Oc3nccs3)cc(-c3ncc(C)s3)c2)nn1 [Example 113, N-[(1R)-1-(6-Methylpyridazin-3-yl)ethyl]-3-(5-methyl-1,3-thiazol-2-yl)-5-(1,3-thiazol-2-yloxy)benzamide] | 
21 | 38 nM | 414 nM | Cc1ccc([C@@H](C)NC(=O)c2cc(Oc3nccs3)cc(-c3ncc(C)s3)c2)cn1 [Example 114, N-[(1R)-1-(6-Methylpyridin-3-yl)ethyl]-3-(5-methyl-1,3-thiazol-2-yl)-5-(1,3-thiazol-2-yloxy)benzamide] | 
22 | 15 nM | 187 nM | COC(C)(C)COc1cc(C(=O)N[C@H](C)c2ccc(Cl)cn2)cc(-c2ncc(Cl)s2)c1 [Example 115, N-[(1R)-1-(5-Chloropyridin-2-yl)ethyl]-3-(5-chloro-1,3-thiazol-2-yl)-5-(2-methoxy-2-methylpropoxy)benzamide] | 
23 | 210 nM | 6430 nM | COC(C)(C)COc1cc(C(=O)N[C@H](C)c2cnc(C(F)(F)F)nc2)cc(-c2ncc(Cl)s2)c1 [Example 116, 3-(5-Chloro-1,3-thiazol-2-yl)-5-(2-methoxy-2-methylpropoxy)-N-{(1R)-1-[2-(trifluoromethyl)pyrimidin-5-yl]ethyl}benzamide] | 
24 | 36 nM | 883 nM | COC(C)(C)COc1cc(C(=O)N[C@H](C)c2cnc(C)cn2)cc(-c2ncc(Cl)s2)c1 [Example 117, 3-(5-Chloro-1,3-thiazol-2-yl)-5-(2-methoxy-2-methylpropoxy)-N-[(1R)-1-(5-methylpyrazin-2-yl)ethyl]benzamide] | 
25 | 198 nM | 1130 nM | Cc1ccc(CNC(=O)c2cc(OCC3CCOCC3)cc(-c3ncc(C(F)(F)F)s3)c2)nn1 [Example 118, N-[(6-Methylpyridazin-3-yl)methyl]-3-(tetrahydro-2H-pyran-4-ylmethoxy)-5-[5-(trifluoromethyl)-1,3-thiazol-2-yl]benzamide] | 
26 | 24 nM | 190 nM | Cc1ccc(CNC(=O)c2cc(OCC3CCOCC3)cc(-c3ncc(C4CCC4)s3)c2)nn1 [Example 119, 3-(5-Cyclobutyl-1,3-thiazol-2-yl)-N-[(6-methylpyridazin-3-yl)methyl]-5-(tetrahydro-2H-pyran-4-ylmethoxy)benzamide] | 
27 | 14 nM | 104 nM | C[C@@H](NC(=O)c1cc(OCC2CCOCC2)cc(-c2ncc(C3CCC3)s2)c1)c1cnc(C(F)(F)F)nc1 [Example 120, 3-(5-Cyclobutyl-1,3-thiazol-2-yl)-5-(tetrahydro-2H-pyran-4-ylmethoxy)-N-{(1R)-1-[2-(trifluoromethyl)pyrimidin-5-yl]ethyl}benzamide] | 
28 | 106 nM | 1170 nM | Cc1ccc(CNC(=O)c2cc(OC[C@H]3CCOC3)cc(-c3ncc(C4CCC4)s3)c2)nn1 [Example 122, 3-(5-Cyclobutyl-1,3-thiazol-2-yl)-N-[(6-methylpyridazin-3-yl)methyl]-5-[(3S)-tetrahydrofuran-3-ylmethoxy]benzamide] | 

Row | SMILES | IC50 (human P2X3 receptor; [1]) | IC50 (human P2X2/3 receptor) | IC50 (human P2X3 receptor)
29 | Cc1cnc([C@@H](C)NC(=O)c2cc(Oc3nccs3)cc(-c3ncc(C)s3)c2)cn1 [Example 112, N-[(1R)-1-(5-Methylpyrazin-2-yl)ethyl]-3-(5-methyl-1,3-thiazol-2-yl)-5-(1,3-thiazol-2-yloxy)benzamide] |  | 772 nM | 61 nM
